Measurements as given in US20260137698A1, “CYCLIN-DEPENDENT KINASE 7 INHIBITORS” (JOINT STOCK COMPANY «BIOCAD», priority 2022, published 2026).

Key:
[1] = molecular target: CDK9/Cyclin K (Homo sapiens, UniProt P50750); assay: Inhibition of CDK9/Cyclin K kinase activity (ADP-Glo); type: biochemical; conditions: mean value from several measurements; read-out: IC50 CDK9/Cyclin K
Description: (§1) Measurements were carried out in a 5 μl reaction volume using a 384-well plate (Corning Inc., order no. 4513). The analyzed substances were titrated from 50 μM in increments of 4 at 11 concentration points in a normal strength kinase buffer A (Thermo Fisher Scientific Inc, cat. no. PV3189) supplemented with DTT (Sigma, orde. no. 646563-10X.5ML) and prepared with water (Panreac, order no. 701074). Kinase was diluted in an analogous buffer, mixed with test compounds in plate wells and preincubated for 10 minutes at 25° C. Following incubation, a mixture of reaction substrate (CDKtide (SignalChem, order no. C06-58) or Histone H1 (SignalChem, order no. H10-54N) or PDKtide (SignalChem, order no. P10-58) and ATP (SignalChem, order no. V915B) prepared on a normal strength kinase buffer A was added. 1% solution of dimethyl sulfoxide (DMSO) (Sigma-Aldrich, order no. D2438) in the reaction volume was used as a negative control. The final concentrations of all reaction components are shown in Table 5. The plate was centrifuged at 400 rcf (Eppendorf, 5804 R) for 1 minute and incubated for 40-60 minutes at 25° C. The amount of ATP consumed in the kinase reaction was then measured using the ADP-Glo™ detection system. Luminescence signal was measured using Spark 20M tablet multifunction reader (Tecan Group Ltd, Switzerland). IC50 value was calculated using Magellan 7.2 (Tecan Group Ltd, Switzerland) by approximating experimental points by four-parameter model with the optimization by Levenberg-Marquardt:
(§2) [formula] • where A is the upper asymptote; D is the lower asymptote; C is IC50, half-maximal inhibitory concentration of kinase, nM; B is the curvature (slope).

[2] = General cytotoxicity on primary differentiated HepaRG cells (72 h); type: cell-based; conditions: human, general toxicity, mean value from several measurements
Text: General cytotoxicity of CDK7 inhibitors according to the present invention was investigated using primary differentiated HepaRG cells (Biopredic Int, order no. HPR101). A week before the measurement, the cells were thawed and maintained in Basal hepatic cell medium (Biopredic Int, order no. MIL700079) supplemented with HepaRG maintenance/metabolism medium supplement with antibiotics (Biopredic Int, order no. ADD620C). The medium in vials with cells was changed every 2-3 days. The night before the test, the cells were plated in wells of 96-well plates (Corning Inc., order no. 3599) at 25×10^3 cells in 100 μl of medium per well. The next day, test compounds were introduced into plate wells with cells, untitrated at a concentration ranging from 200 μM to 0.2 nM, and incubated for 72 hours. Cell viability was assessed as described above.

[3] = molecular target: CDK2/Cyclin A (Homo sapiens, UniProt P24941); assay: Inhibition of CDK2/Cyclin A kinase activity (ADP-Glo); type: biochemical; conditions: mean value from several measurements; read-out: IC50 CDK2/Cyclin A
Description: as §1, §2

[4] = molecular target: CDK7/Cyclin H/MNAT1 (Homo sapiens, UniProt P50613); assay: Inhibition of CDK7/Cyclin H/MNAT1 kinase activity (ADP-Glo); type: biochemical; conditions: mean value from several measurements; read-out: IC50 CDK7/Cyclin H/MNAT
Description: as §1, §2

[5] = test system: MDA-MB-468 (triple negative breast cancer); assay: Antiproliferative assay on MDA-MB-468 cells (AlamarBlue, 96 h); type: cell-based; conditions: Homo sapiens, mean value from several measurements
Description: The antiproliferative activity of CDK7 inhibitors according to the present invention was evaluated in a cell test using continuous cell cultures: MDA-MB-468 (triple negative breast cancer, ATCC® HTB-132™) and NCl-H82 (small cell lung cancer, ATCC® HTB-175™) using a viable AlamarBlue dye (Thermo Fisher Scientific Inc, order no. DAL1100). The cells were grown in DMEM (PanEco, order no. C330π) and RPMI-1640 (PanEco, order no. C330π), respectively. The basal growth medium was enriched with L-glutamine at a concentration of 2 mM (PanEco, order no. Φ032) and 10% fetal bovine serum (Gibco, order no. 16140-071). The night before measurement, MDA-MB-468 adherent cells were detached from plastic with a solution of trypsin-EDTA (PanEco, order no. Π039π), the solution was then inactivated by a DMEM complete medium, centrifuged at 1000 RPM (Eppendorf, 5804 R), a suspension of cells was prepared in a DMEM complete medium, introduced into 96-well culture plates (Corning Inc, order no. 3599) at 8×10^3 cells in 100 μl of medium per well. The next day, test compounds were dissolved in DMSO and diluted with a DMEM complete medium to a final concentration ranging from 50 μM to 10 pM. Diluted compounds in a volume of 50 μl were introduced into the plate wells with cells in triplicates (the final concentration of DMSO was no more than 1%) and incubated at 37° C. in an incubator with 5% CO2 for 96 hours. NCl-H82 suspension cell line was prepared on the day of the analysis. 10×10^3 cells in 100 μl of an RPMI-1640 complete medium were added to each well of a 96-well plate. The procedure for sample dilution is as described above. Cells with test compounds were incubated at 37° C. in an incubator with 5% CO2 for 120 hours. Following incubation, […] of AlamarBlue reagent (Thermo Fisher Scientific Inc., order no. DAL1100) was added to the wells, the contents of the plates were stirred in an orbital shaker (Biosan, Latvia), then further incubated for 5.5-6 hours at 37° C. in an incubator with 5% CO2. The number of viable cells was detected using the Infinite M200Pro microplate spectrophotometer (Tecan Group Ltd, Switzerland) by way of measuring a fluorescent signal at an excitation wavelength (λEx) of 540 nm and an emission wavelength (λEm) of 590 nm.
IC50 value was calculated using the Magellan software (Tecan Group Ltd, Switzerland) by approximating experimental points by four-parameter model with the optimization by Levenberg-Marquardt: […]

Chain of CDK7/Cyclin H/MNAT1 (P50613 whole entry): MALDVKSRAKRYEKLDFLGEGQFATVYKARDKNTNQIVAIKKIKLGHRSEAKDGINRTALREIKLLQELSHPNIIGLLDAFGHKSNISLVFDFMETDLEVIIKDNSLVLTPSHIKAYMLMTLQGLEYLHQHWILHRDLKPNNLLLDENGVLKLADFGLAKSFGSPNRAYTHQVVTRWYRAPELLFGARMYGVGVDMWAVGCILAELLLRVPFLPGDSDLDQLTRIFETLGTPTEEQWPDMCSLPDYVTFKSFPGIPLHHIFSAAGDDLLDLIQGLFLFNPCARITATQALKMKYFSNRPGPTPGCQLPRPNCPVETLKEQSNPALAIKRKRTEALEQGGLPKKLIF
Chain of CDK7/Cyclin H/MNAT1 (P51946 whole entry partner): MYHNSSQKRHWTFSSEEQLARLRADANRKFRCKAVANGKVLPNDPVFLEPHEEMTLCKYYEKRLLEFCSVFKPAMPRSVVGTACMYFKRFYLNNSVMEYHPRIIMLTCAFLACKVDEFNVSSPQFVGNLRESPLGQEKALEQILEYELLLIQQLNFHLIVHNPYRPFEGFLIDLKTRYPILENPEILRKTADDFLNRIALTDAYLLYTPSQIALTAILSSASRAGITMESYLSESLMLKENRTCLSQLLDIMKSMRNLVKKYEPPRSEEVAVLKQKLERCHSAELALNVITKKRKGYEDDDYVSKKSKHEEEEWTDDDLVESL
Chain of CDK7/Cyclin H/MNAT1 (P51948 whole entry partner): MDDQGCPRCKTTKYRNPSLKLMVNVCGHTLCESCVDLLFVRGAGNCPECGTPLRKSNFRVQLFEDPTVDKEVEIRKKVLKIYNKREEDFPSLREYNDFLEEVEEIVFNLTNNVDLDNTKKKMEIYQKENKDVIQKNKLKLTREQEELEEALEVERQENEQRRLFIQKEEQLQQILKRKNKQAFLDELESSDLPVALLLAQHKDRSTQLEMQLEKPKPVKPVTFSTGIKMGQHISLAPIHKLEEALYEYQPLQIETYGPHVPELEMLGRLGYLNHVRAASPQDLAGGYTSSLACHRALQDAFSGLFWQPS
Chain of CDK9/Cyclin K (P50750 whole entry): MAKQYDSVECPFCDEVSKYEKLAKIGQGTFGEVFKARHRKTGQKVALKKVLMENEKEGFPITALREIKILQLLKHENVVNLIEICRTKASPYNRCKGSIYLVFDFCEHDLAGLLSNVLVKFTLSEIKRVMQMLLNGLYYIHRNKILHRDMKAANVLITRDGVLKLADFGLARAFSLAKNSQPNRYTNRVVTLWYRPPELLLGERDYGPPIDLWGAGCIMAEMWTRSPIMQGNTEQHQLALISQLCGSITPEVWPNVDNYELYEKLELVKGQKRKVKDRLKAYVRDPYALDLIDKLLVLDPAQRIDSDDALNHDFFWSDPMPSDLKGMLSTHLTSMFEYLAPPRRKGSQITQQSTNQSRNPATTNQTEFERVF
Chain of CDK9/Cyclin K (O75909 whole entry partner): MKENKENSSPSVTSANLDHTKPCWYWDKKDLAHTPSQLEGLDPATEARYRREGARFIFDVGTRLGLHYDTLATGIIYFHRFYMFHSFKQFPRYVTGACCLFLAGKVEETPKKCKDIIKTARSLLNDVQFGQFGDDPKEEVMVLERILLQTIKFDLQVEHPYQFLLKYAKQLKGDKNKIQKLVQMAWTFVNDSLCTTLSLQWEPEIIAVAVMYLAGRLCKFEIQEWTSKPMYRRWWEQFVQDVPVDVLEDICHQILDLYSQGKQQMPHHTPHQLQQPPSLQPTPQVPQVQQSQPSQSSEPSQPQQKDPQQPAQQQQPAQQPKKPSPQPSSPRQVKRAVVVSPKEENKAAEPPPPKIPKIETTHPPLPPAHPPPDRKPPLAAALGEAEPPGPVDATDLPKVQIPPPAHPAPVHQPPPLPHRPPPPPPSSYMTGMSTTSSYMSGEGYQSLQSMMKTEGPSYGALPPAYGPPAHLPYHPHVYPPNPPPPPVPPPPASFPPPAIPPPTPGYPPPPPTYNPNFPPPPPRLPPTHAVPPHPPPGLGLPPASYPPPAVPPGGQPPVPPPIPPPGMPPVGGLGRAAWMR

| SMILES | IC50 [1] | IC50 [3] | IC50 [4] | IC50 [5] | CC50 at 72 h [2] |
| --- | --- | --- | --- | --- | --- |
| N#Cc1ccc(NC(=O)c2cc(-c3nc(N[C@H]4CCCNC4)ncc3C(F)(F)F)c[nH]2)cc1 [CDK7_837, N-(4-cyanophenyl)-4-(2-{[(3S)-piperidin-3-yl]amino}-5-(trifluoromethyl)pyrimidin-4-yl)-1H-pyrrole-2-carboxamide] | > 200 nM | > 200 nM | 50 to 200 nM | 100 to 1000 nM | 500 to 2000 nM |
| O=C(Nc1ccccc1)c1cc(-c2nc(N[C@H]3CCCNC3)ncc2C(F)(F)F)c[nH]1 [CDK7_538, N-phenyl-4-(2-{[(3S)-piperidin-3-yl]amino}-5-(trifluoromethyl)pyrimidin-4-yl)-1H-pyrrole-2-carboxamide] | 50 to 200 nM | > 200 nM | 5 to 50 nM | 100 to 1000 nM | 500 to 2000 nM |
| O=C(c1cc(-c2nc(N[C@H]3CCCNC3)ncc2C(F)(F)F)c[nH]1)N1CCOCC1 [CDK7_849, 4-[5-(morpholine-4-carbonyl)-1H-pyrrol-3-yl]-N-[(3S)-piperidin-3-yl]-5-(trifluoromethyl) pyrimidin-2-amine] | 50 to 200 nM | > 200 nM | < 5 nM | 10 to 100 nM | 500 to 2000 nM |
| CN(C(=O)c1cc(-c2nc(N[C@H]3CCCNC3)ncc2C(F)(F)F)c[nH]1)C1CC1 [CDK7_1001, N-cyclopropyl-N-methyl-4-(2-{[(3S)-piperidin-3-yl]amino}-5-(trifluoromethyl)pyrimidin-4-yl)-1H-pyrrole-2-carboxamide] | 5 to 50 nM | > 200 nM | < 5 nM | 100 to 1000 nM | 500 to 2000 nM |

The next lines start with results.

| IC50 [1] | IC50 [3] | IC50 [4] | IC50 [5] | SMILES | CC50 at 72 h [2] |
| --- | --- | --- | --- | --- | --- |
| 50 to 200 nM | > 200 nM | 5 to 50 nM | 100 to 1000 nM | CN1CCN(C(=O)c2cc(-c3nc(N[C@H]4CCCNC4)ncc3C(F)(F)F)c[nH]2)CC1 [CDK7_539, 4-[5-(4-methylpiperazine-1-carbonyl)-1H-pyrrol-3-yl]-N-[(3S)-piperidin-3-yl]-5-(trifluoromethyl) pyrimidin-2-amine] | > 2000 nM |
| 50 to 200 nM | > 200 nM | 5 to 50 nM | 100 to 1000 nM | CN(C(=O)c1cc(-c2nc(N[C@H]3CCCNC3)ncc2C(F)(F)F)c[nH]1)c1nccs1 [CDK7_1003, N-methyl-4-(2-{[(3S)-piperidin-3-yl]amino}-5-(trifluoromethyl)pyrimidin-4-yl)-N-(1,3-thiazol-2-yl)-1H-pyrrole-2-carboxamide] | 500 to 2000 nM |
| 50 to 200 nM | > 200 nM | 5 to 50 nM | 100 to 1000 nM | FC(F)(F)c1cnc(N[C@H]2CCCNC2)nc1-c1cc[nH]c1 [CDK7_972, N-[(3S)-piperidin-3-yl]-4-(1H-pyrrol-3-yl)-5-(trifluoromethyl)py-rimidin-2-amine] | 500 to 2000 nM |
| 50 to 200 nM | > 200 nM | 5 to 50 nM | 100 to 1000 nM | O=C(c1ccccc1)c1cc(-c2nc(N[C@H]3CCCNC3)ncc2C(F)(F)F)c[nH]1 [CDK7_535, 4-(5-benzoyl-1H-pyrrol-3-yl)-N-[(3S)-piperidin-3-yl]-5-(trifluoromethyl) pyrimidin-2-amine] | > 2000 nM |
| 50 to 200 nM | > 200 nM | 5 to 50 nM | 100 to 1000 nM | O=C(NCc1ccccc1)c1cc(-c2nc(N[C@H]3CCCNC3)ncc2C(F)(F)F)c[nH]1 [CDK7_997, N-benzyl-4-(2-{[(3S)-piperidin-3-yl]amino}-5-(trifluoromethyl)pyrimidin-4-yl)-1H-pyrrole-2-carboxamide] | 500 to 2000 nM |
| 50 to 200 nM | > 200 nM | 5 to 50 nM | 100 to 1000 nM | O=C(Nc1ccncc1)c1cc(-c2nc(N[C@H]3CCCNC3)ncc2C(F)(F)F)c[nH]1 [CDK7_836, 4-(2-{[(3S)-piperidin-3-yl]amino}-5-(trifluoromethyl)pyrimidin-4-yl)-N-(pyridin-4-yl)-1H-pyrrole-2-carboxamide] | 500 to 2000 nM |
